# Experimental data published in the supplement of paper PMC10307832.
# Tests used:
# Experiment in all cases: relative viability (nuclei count vs DMSO), 5 days (fraction); higher = more cells survive
# [1] = compound: CCc1cnn2c(NCc3ccc[n+]([O-])c3)cc(N3CCCC[C@H]3CCO)nc12 [Dinaciclib] + C[C@@H](Oc1cc(-c2cnn(C3CCNCC3)c2)cnc1N)c1c(Cl)ccc(F)c1Cl [Crizotinib] (partner 1 µM)
# Procedure, shortened: (§1)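 Each reported value is a median over duplicate plates. It expresses relative viability: treated-well nuclei count divided by vehicle-well nuclei count. Lung cancer cell lines in 1536-well plates were dosed by pin tool a day after seeding, alone with one drug or with a fixed anchor-drug dose plus five library-drug doses (not always all listed) in √10 steps, and nuclei were counted after 5 days.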
# [2] = compound: CCc1cnn2c(NCc3ccc[n+]([O-])c3)cc(N3CCCC[C@H]3CCO)nc12 [Dinaciclib] + CS(=O)(=O)N1CCN(Cc2cc3nc(-c4cccc5[nH]ncc45)nc(N4CCOCC4)c3s2)CC1 [Pictilisib] (partner 1 µM)
# Procedure, shortened: as §1
# [3] = compound: CCc1cnn2c(NCc3ccc[n+]([O-])c3)cc(N3CCCC[C@H]3CCO)nc12 [Dinaciclib] + Cc1nc(NC(=O)N2CCC[C@H]2C(N)=O)sc1-c1ccnc(C(C)(C)C(F)(F)F)c1 [Alpelisib] (partner 2 µM)
# Procedure, shortened: as §1
# [4] = compound: CCc1cnn2c(NCc3ccc[n+]([O-])c3)cc(N3CCCC[C@H]3CCO)nc12 [Dinaciclib] + O=C(c1cc(Cc2n[nH]c(=O)c3ccccc23)ccc1F)N1CCN(C(=O)C2CC2)CC1 [Olaparib] (partner 8 µM)
# Procedure, shortened: as §1
# [5] = compound: CCc1cnn2c(NCc3ccc[n+]([O-])c3)cc(N3CCCC[C@H]3CCO)nc12 [Dinaciclib] + C[C@]1(O)C[C@@H](c2nc(-c3ccc4ccc(-c5ccccc5)nc4c3)c3c(N)nccn32)C1 [Linsitinib] (partner 1 µM)
# Procedure, shortened: as §1
# [6] = compound: CCc1cnn2c(NCc3ccc[n+]([O-])c3)cc(N3CCCC[C@H]3CCO)nc12 [Dinaciclib] + CS(=O)(=O)CCNCc1ccc(-c2ccc3ncnc(Nc4ccc(OCc5cccc(F)c5)c(Cl)c4)c3c2)o1 [Lapatinib] (partner 2 µM)
# Procedure, shortened: as §1
# [7] = compound: CCc1cnn2c(NCc3ccc[n+]([O-])c3)cc(N3CCCC[C@H]3CCO)nc12 [Dinaciclib] + CC(C)C[C@H](NC(=O)[C@H](Cc1ccccc1)NC(=O)c1cnccn1)B(O)O [Bortezomib] (partner 0.002 µM)
# Procedure, shortened: as §1
# [8] = compound: CCc1cnn2c(NCc3ccc[n+]([O-])c3)cc(N3CCCC[C@H]3CCO)nc12 [Dinaciclib] + COc1cc2c(Oc3ccc(NC(=O)C4(C(=O)Nc5ccc(F)cc5)CC4)cc3F)ccnc2cc1OCCCN1CCOCC1 [Foretinib] (partner 0.25 µM)
# Procedure, shortened: as §1
# [9] = compound: CCc1cnn2c(NCc3ccc[n+]([O-])c3)cc(N3CCCC[C@H]3CCO)nc12 [Dinaciclib] + CC1(C)CCC(c2ccc(Cl)cc2)=C(CN2CCN(c3ccc(C(=O)NS(=O)(=O)c4ccc(N[C@H](CCN5CCOCC5)CSc5ccccc5)c(S(=O)(=O)C(F)(F)F)c4)cc3)CC2)C1 [Navitoclax] (partner 0.5 µM)
# Procedure, shortened: as §1
# [10] = compound: CCc1cnn2c(NCc3ccc[n+]([O-])c3)cc(N3CCCC[C@H]3CCO)nc12 [Dinaciclib]
# Procedure, shortened: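 Nuclei counted with MetaXpress define viability as the ratio of treated to vehicle wells, given as a median across plates. The lung cancer cell lines were in 1536-well plates, pinned with five √10-spaced library-drug doses and imaged at 4× after 5 days and Hoechst staining. Plates passed with control CV below 25% and at least one doubling.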
# [11] = compound: CCc1cnn2c(NCc3ccc[n+]([O-])c3)cc(N3CCCC[C@H]3CCO)nc12 [Dinaciclib] + CCNC(=O)c1noc(-c2cc(C(C)C)c(O)cc2O)c1-c1ccc(CN2CCOCC2)cc1 [Luminespib] (partner 0.01 µM)
# Procedure, shortened: as §1
# [12] = compound: CCc1cnn2c(NCc3ccc[n+]([O-])c3)cc(N3CCCC[C@H]3CCO)nc12 [Dinaciclib] + N=C(N)NC(=N)NCCc1ccccc1 [Phenformin] (partner 250 µM)
# Procedure, shortened: as §1
# [13] = compound: CCc1cnn2c(NCc3ccc[n+]([O-])c3)cc(N3CCCC[C@H]3CCO)nc12 [Dinaciclib] + Nc1nc2[nH]cc(CCc3ccc(C(=O)N[C@@H](CCC(=O)O)C(=O)O)cc3)c2c(=O)[nH]1 [Pemetrexed] (partner 0.2 µM)
# Procedure, shortened: as §1
# [14] = compound: CCc1cnn2c(NCc3ccc[n+]([O-])c3)cc(N3CCCC[C@H]3CCO)nc12 [Dinaciclib] + COc1cccc2cc(-c3nc([C@H]4CC[C@H](C(=O)O)CC4)n4ncnc(N)c34)[nH]c12 [OSI-027] (partner 0.5 µM)
# Procedure, shortened: as §1
# [15] = compound: CCc1cnn2c(NCc3ccc[n+]([O-])c3)cc(N3CCCC[C@H]3CCO)nc12 [Dinaciclib] + Cc1nc(Nc2ncc(C(=O)Nc3c(C)cccc3Cl)s2)cc(N2CCN(CCO)CC2)n1 [Dasatinib] (partner 0.075 µM)
# Procedure, shortened: as §1
cell line,measurement,setting,value
NCI-H1299,relative viability,[1]; first compound 0.009487 µM,0.709
same,relative viability,[1]; first compound 0.03 µM,0.681
same,relative viability,[1]; first compound 0.09487 µM,0.144
same,relative viability,[1]; first compound 0.3 µM,0.111
same,relative viability,[2]; first compound 0.009487 µM,0.416
same,relative viability,[2]; first compound 0.03 µM,0.0311
same,relative viability,[2]; first compound 0.09487 µM,0.0181
same,relative viability,[2]; first compound 0.3 µM,0.0214
same,relative viability,[3]; first compound 0.009487 µM,1.09
same,relative viability,[3]; first compound 0.03 µM,0.821
same,relative viability,[3]; first compound 0.09487 µM,0.15
same,relative viability,[3]; first compound 0.3 µM,0.188
same,relative viability,[4]; first compound 0.009487 µM,0.962
same,relative viability,[4]; first compound 0.03 µM,0.16
same,relative viability,[4]; first compound 0.09487 µM,0.0946
same,relative viability,[4]; first compound 0.3 µM,0.104
same,relative viability,[5]; first compound 0.009487 µM,0.883
same,relative viability,[5]; first compound 0.03 µM,0.24
same,relative viability,[5]; first compound 0.09487 µM,0.103
same,relative viability,[5]; first compound 0.3 µM,0.0705
same,relative viability,[6]; first compound 0.009487 µM,0.824
same,relative viability,[6]; first compound 0.03 µM,0.198
same,relative viability,[6]; first compound 0.09487 µM,0.137
same,relative viability,[6]; first compound 0.3 µM,0.124
same,relative viability,[7]; first compound 0.009487 µM,1.05
same,relative viability,[7]; first compound 0.03 µM,0.216
same,relative viability,[7]; first compound 0.09487 µM,0.142
same,relative viability,[7]; first compound 0.3 µM,0.135
same,relative viability,[8]; first compound 0.009487 µM,0.986
same,relative viability,[8]; first compound 0.03 µM,0.202
same,relative viability,[8]; first compound 0.09487 µM,0.104
same,relative viability,[8]; first compound 0.3 µM,0.088
same,relative viability,[9]; first compound 0.009487 µM,1.12
same,relative viability,[9]; first compound 0.03 µM,0.27
same,relative viability,[9]; first compound 0.09487 µM,0.107
same,relative viability,[9]; first compound 0.3 µM,0.107
same,relative viability,[10]; 0.009487 µM,0.98
same,relative viability,[10]; 0.03 µM,0.371
same,relative viability,[10]; 0.09487 µM,0.121
same,relative viability,[10]; 0.3 µM,0.0997
NCI-H1563,relative viability,[1]; first compound 0.009487 µM,1.03
same,relative viability,[1]; first compound 0.03 µM,0.379
same,relative viability,[1]; first compound 0.09487 µM,0.34
same,relative viability,[1]; first compound 0.3 µM,0.303
same,relative viability,[2]; first compound 0.009487 µM,0.655
same,relative viability,[2]; first compound 0.03 µM,0.326
same,relative viability,[2]; first compound 0.09487 µM,0.296
same,relative viability,[2]; first compound 0.3 µM,0.284
same,relative viability,[3]; first compound 0.009487 µM,1.09
same,relative viability,[3]; first compound 0.03 µM,0.459
same,relative viability,[3]; first compound 0.09487 µM,0.388
same,relative viability,[3]; first compound 0.3 µM,0.302
same,relative viability,[11]; first compound 0.009487 µM,0.526
same,relative viability,[11]; first compound 0.03 µM,0.272
same,relative viability,[11]; first compound 0.09487 µM,0.177
same,relative viability,[11]; first compound 0.3 µM,0.128
same,relative viability,[5]; first compound 0.009487 µM,1.39
same,relative viability,[5]; first compound 0.03 µM,0.794
same,relative viability,[5]; first compound 0.09487 µM,0.331
same,relative viability,[5]; first compound 0.3 µM,0.376
same,relative viability,[6]; first compound 0.009487 µM,1.24
same,relative viability,[6]; first compound 0.03 µM,0.489
same,relative viability,[6]; first compound 0.09487 µM,0.411
same,relative viability,[6]; first compound 0.3 µM,0.423
same,relative viability,[12]; first compound 0.009487 µM,0.745
same,relative viability,[12]; first compound 0.03 µM,0.365
same,relative viability,[12]; first compound 0.09487 µM,0.259
same,relative viability,[12]; first compound 0.3 µM,0.236
same,relative viability,[13]; first compound 0.009487 µM,0.704
same,relative viability,[13]; first compound 0.03 µM,0.393
same,relative viability,[13]; first compound 0.09487 µM,0.161
same,relative viability,[13]; first compound 0.3 µM,0.13
same,relative viability,[7]; first compound 0.009487 µM,1.13
same,relative viability,[7]; first compound 0.03 µM,0.485
same,relative viability,[7]; first compound 0.09487 µM,0.368
same,relative viability,[7]; first compound 0.3 µM,0.387
same,relative viability,[14]; first compound 0.009487 µM,0.795
same,relative viability,[14]; first compound 0.03 µM,0.416
same,relative viability,[14]; first compound 0.09487 µM,0.297
same,relative viability,[14]; first compound 0.3 µM,0.27
same,relative viability,[8]; first compound 0.009487 µM,1.14
same,relative viability,[8]; first compound 0.03 µM,0.504
same,relative viability,[8]; first compound 0.09487 µM,0.327
same,relative viability,[8]; first compound 0.3 µM,0.291
same,relative viability,[15]; first compound 0.009487 µM,0.448
same,relative viability,[15]; first compound 0.03 µM,0.307
same,relative viability,[15]; first compound 0.09487 µM,0.133
same,relative viability,[15]; first compound 0.3 µM,0.123
same,relative viability,[10]; 0.009487 µM,1.25
same,relative viability,[10]; 0.03 µM,0.552
same,relative viability,[10]; 0.09487 µM,0.314
same,relative viability,[10]; 0.3 µM,0.286
